Assay results from patent publication US20260061026A1, “COMBINATION OF INOSITOL PHOSPHORYLCERAMIDE SYNTHETASE INHIBITOR AND AMPHOTERICIN B, AND USE THEREOF” (priority 2023, published 2026).

Test system: Cryptococcus neoformans var. grubii H99
Assay: Fungicidal efficacy (CFU survival rate) of AbA, AmB and their combination, with or without IPC
Format: cell-based
Conditions: AmB 1 μg/mL, 1 hour in YPD medium; for the combination AbA 1 μg/mL added 6 hours before AmB
Procedure: In this example, the antifungal activity of AbA was evaluated. Specifically, the inventors tested the activity of AbA alone and in combination with AmB against Cryptococcus. In addition, the inventors also tested the effect of purified IPC on the antifungal activity of AbA alone and in combination with AmB against Cryptococcus. The specific experimental procedures are as follows.
In this example, a total of 5 groups were set up, including AbA alone, AmB alone, AbA combined with AmB, AbA combined with AmB in the presence of 1 mg/mL IPC, and AbA combined with AmB in the presence of 10 mg/mL IPC. The fungicidal efficacy of the above 5 groups of treatments against Cryptococcus neoformans var. grubii H99 (a laboratory strain) was evaluated. The survival rate of Cryptococcus after 1 hour of treatment with AmB in YPD medium was determined by calculating the CFU ratio between AmB-treated and untreated samples. AbA and IPC were added 6 hours prior to AmB treatment as a pre-treatment. AbA was purchased from Biorigin, AmB from Inalco, and IPC was extracted from an ERG6 gene knockout H99 mutant strain defective in ergosterol biosynthesis.

## C[C@@H]1[C@H](O)[C@@H](C)/C=C/C=C/C=C/C=C/C=C/C=C/C=C/[C@H](O[C@@H]2O[C@H](C)[C@@H](O)[C@H](N)[C@@H]2O)C[C@@H]2O[C@](O)(C[C@@H](O)C[C@@H](O)[C@H](O)CC[C@@H](O)C[C@@H](O)CC(=O)O[C@H]1C)C[C@H](O)[C@H]2C(=O)O [AmB, amphotericin B]
  survival rate of Cryptococcus neoformans (CFU ratio between AmB-treated and untreated samples): 39%
